The text below walks through data of patent publication US9388226B2, “Peptides modulating the activity of macrophages, useable for the treatment of rheumatoid arthritis” (Universite Paul Sabatier, priority 2006, dated 2016).

Non-standard residues stand in square brackets, D forms with d. No end group written: not given here. Cit = NC(=O)NCCC[C@H](N)C(=O)O

Test [1] has as its system ACPAs in sera from patients suffering from RA. The test can be described thus: Reactivity of fibrin-derived citrullinated peptides with sera from RA patients having ACPAs. Format: binding, human. To be noted: 20 sera from RA patients having detectable ACPAs. An excerpt:
Among these peptides, those which bear immunodominant epitopes (recognized by a large number of sera from patients suffering from RA) are given in table 2. The 20 sera tested correspond to a series originating from patients suffering from RA having ACPAs detectable by means of multiple tests for detecting these autoantibodies and which, taken as a whole, make it possible to represent the heterogeneity of the specificity profiles encountered in the patients.

In test [2] the test system is ACPA binding to citrullinated human fibrinogen. Put plainly: ELISA competition assay: inhibition of the reactivity of IgG ACPA+ with respect to citrullinated fibrinogen. The settings on record: IgG ACPA+ 16 μg/ml; competitor 0.006 to 1.56 mg/ml added 2 h before ELISA; FIG. 2. As for the experimental part:
96-well microtitration plates (MaxiSorp, Nunc, VWR International, Fontenay sous Bois, France) are coated with citrullinated human fibrinogen (prepared as indicated in example 1) at a rate of 100 μl/well of a solution at 5 μg/ml in PBS, pH 7.4, overnight at 4° C. The plates are then saturated with a solution of PBS containing 2% of BSA (PBS-2% BSA) (180 μl/well). After this step, the IgG ACPA+ (prepared as indicated in example 1), diluted beforehand to 16 μg/ml in PBS-2% BSA in the presence or absence of increasing amounts of the competitor peptides α36-50cit38, 42 and/or β60-74cit60, 72, 74 (each at a concentration ranging from 0.006 to 1.56 mg/ml) added 2 h before the ELISA assay, are added. The concentration used for the IgG ACPA+ was chosen because it makes it possible to obtain an OD of between 1 and 1.5 in the absence of competitor peptide. Citrullinated or noncitrullinated fibrinogen (0.0002 to 1.56 mg/ml) and the noncitrullinated forms of the α36-50cit38, 42 and β60-74cit60, 72, 74 peptides (respectively referred to as α36-50 and β60-74) are used as control. The ACPA binding is then detected with peroxidase-labeled anti-human IgG goat IgGs (SouthernBiotech, Birmingham, Ala.) diluted to 1/9000 in PBS-2% BSA. All the incubations are carried out for 1 h at 4° C. and are followed by washes in PBS-0.1% Tween 20.
The results of this ELISA competition assay are illustrated in FIG. 2. The data are representative of 3 experiments carried out with two different preparations of IgG ACPA+. The results are expressed as degree of inhibition of the reactivity obtained in the absence of competitor peptide.
For orientation: An ELISA detects its analyte on a solid surface through an enzyme-linked reagent.

The test system of the next test is human macrophages. The test can be described thus: Inhibition of the stimulation of human macrophages by ICs associating ACPAs and citrullinated fibrinogen, TNF-α in supernatants. The test is classed as cell-based. The settings on record: IgG ACPA+ 1.13 mg/ml; for TNFα level: citrullinated fibrinogen plates. As for the experimental part:
The reconstitution of ICs associating ACPAs and citrullinated fibrinogen is carried out by coating flat-bottomed 96-well culture plates (Nunclon delta, Nunc, Roskilde, Denmark), under sterile conditions, with human citrullinated fibrinogen at 10 μg/ml, added at a rate of 50 μl/well and incubated overnight at 4° C. The plates are subsequently saturated in PBS, pH 7.4, 2% BSA for 1 hour at 4° C. (180 μl/well). After 3 washes in PBS, pH 7.4, 0.1% Tween-20, the wells are incubated for 2 hours at 4° C. with 100 μl of IgG ACPA+ at various concentrations (ranging from 9 to 0.28 mg/ml) diluted in PBS containing 2% BSA and 2M NaCl. Negative controls are made up in the same way, using either noncitrullinated human fibrinogen as antigen coated at the bottom of the plate, or control IgGs as antibodies. Wells coated only with citrullinated or noncitrullinated human fibrinogen and saturated in PBS, pH 7.4, 2% BSA are also used as negative controls.
After 3 washes in PBS, pH 7.4, 0.1% Tween-20, then 3 washes in PBS, the macrophages are added at a rate of 50000 viable cells/well in a volume of 200 μl. After incubation for 24 hours at 37° C. under an atmosphere containing 5% CO2, the supernatants are recovered (160 μl/well) and are rapidly frozen at −20° C. until they are analyzed. The negative control for activation is carried out using macrophages in macrophage-SFM medium alone. Macrophages placed on aggregated IgGs immobilized at the bottom of the culture plates by passive adsorption (at a rate of 100 μl of a solution at 5 μg/ml per well), or placed in the presence of bacterial lipopolysaccharide (LPS, Escherichia coli 0.55:B5 at a final concentration of 0.5 μg/ml; Sigma-Aldrich Chimie), are used as controls for the ability of the macrophages to respond to a stimulus inducing TNF-α synthesis.
An ELISA assay kit for human TNF-α, comprising a capture antibody, a detection antibody and recombinant human TNF-α for making up a calibration range of 7.8 to 500 pg/ml, was used to assay this cytokine in the culture supernatants (Human TNF-alpha BD OptEIA™ ELISA et, BD Biosciences Pharmingen, Pont-de-Claix, France).
The preparation and the stimulation of the macrophages are carried out exactly under the conditions described in example 1, except for the fact that the reconstitution of ICs is carried out with IgG ACPA+ diluted to 1.13 mg/ml in PBS containing 2M of NaCl and 2% of BSA in the presence or absence of the competitor peptide β60-74cit60, 72, 74 at two concentrations (0.8 and 4 mg/ml) added 2 h before the incubation with the citrullinated fibrinogen immobilized at the bottom of the culture plates. Competitions with citrullinated or noncitrullinated fibrinogen (0.4 mg/ml) and also with the noncitrullinated peptide β60-74 (0.8 and 4 mg/ml), are also carried out as control.

Regarding “XGHAKSXPVXGIHTS ([Cit]GHAKS[Cit]PV[Cit]GIHTS) [α621-635cit621, 627, 630, fibrinogen α-chain derived citrullinated peptide, X = citrullyl residue]”, in test [1], the “NUMBER OF REACTIVE SERA OUT OF THE 20 TESTED” value was found to be 10.
“GPXVVEXHQSACKDS (GP[Cit]VVE[Cit]HQSACKDS) [α36-50cit38, 42, fibrinogen α-chain derived citrullinated peptide, X = citrullyl residue]”: the “percentage inhibition of the ACPA binding to the citrullinated fibrinogen, plateau value” (shortened to “percentage inhibition”) in test [2] is reported as “approximately 15%”. Also, the “NUMBER OF REACTIVE SERA OUT OF THE 20 TESTED” value in test [1] is 12.
Consider “citrullinated fibrinogen: purified human fibrinogen incubated with rabbit skeletal muscle peptidylarginine deiminase”, for which the TNFα level entry in the test on human macrophages (fibrinogen competitor 0.4 mg/ml) is “approximately 20 pg/ml”. Besides, the “percentage inhibition” value in test [2] was “approximately 80%”.
“SGIGTLDGFXHXHPD (SGIGTLDGF[Cit]H[Cit]HPD) [α501-515cit510, 512, fibrinogen α-chain derived citrullinated peptide, X = citrullyl residue]”: in test [1], the “NUMBER OF REACTIVE SERA OUT OF THE 20 TESTED” value is recorded as 9.
Regarding “XPAPPPISGGGYXAX ([Cit]PAPPPISGGGY[Cit]A[Cit]-NH2) [β60-74cit60, 72, 74, fibrinogen β-chain derived citrullinated peptide, X = citrullyl residue]”, the TNFα level result in the test with human macrophages (competitor peptide 0.8 mg/ml) is “approximately 40 pg/ml”; in the test on human macrophages (competitor peptide 4 mg/ml), “less than 20 pg/ml”. Moreover, the “effect on TNF-α production in response to the ICs (in words)” value in the test with human macrophages (competitor 0.8 and 4 mg/ml (peptide)) was “dose-dependent inhibition”. Also, the “percentage inhibition” value in test [2] is reported as “approximately 60%”. Further, in test [1], the “NUMBER OF REACTIVE SERA OUT OF THE 20 TESTED” value is 14.
“VDIDIKIXSCXGSCS (VDIDIKI[Cit]SC[Cit]GSCS; cysteine pairing not given here) [α171-185cit178, 181, fibrinogen α-chain derived citrullinated peptide, X = citrullyl residue]”: the “NUMBER OF REACTIVE SERA OUT OF THE 20 TESTED” value in test [1] is on record as 9.
